Assay in all cases: agar dilution test (MIC)
Holding throughout (format): cell-based
A general note: In agar dilution the substance is mixed into plates at graded concentrations.

The test system of assay [1] is Str.pyogenes 308A. The settings on record: Streptococcus pyogenes, Mueller Hinton agar, 16 to 18 hours at 37°C, read-out: Minimum Inhibitory Concentration (MIC). The method, then: (§1) The antimicrobial activity was determined by measuring the Minimum Inhibitory Concentration (MIC). The MIC of the compounds was determined by a standard test, the "agar dilution test" according to Lorian (Antibiotics in Laboratory Medicine, Williams and Wilkins, Baltimore/London 1980) as follows:
(§2) A two-fold decreasing concentration series of each compound was prepared in Petri dishes containing 15 ml of Mueller Hinton agar (Difco). One Petri dish containing only the Mueller Hinton agar served as control for bacterial growth. Each Petri dish was inoculated with a multi-point inoculator (Denley), which transferred 0.6µl of a 1:100 diluted 18 hours culture of the appropriate test bacterium. After 16 to 18 hours of incubation at 37°C the Petri dishes were examined for growth of bacteria. The lowest concentration of the compound which causes complete inhibition of growth is taken as the MIC except that the growth of a single colony or a haze is not taken as evidence of qrowth.

Assay [2] relates to Staph.aureus 503. The settings on record: Staphylococcus aureus, Mueller Hinton agar, 16 to 18 hours at 37°C, read-out: Minimum Inhibitory Concentration (MIC). How it is done: as §1, §2
The subject of assay [3] is Bac.subt. ATCC6633. The settings on record: Mueller Hinton agar, 16 to 18 hours at 37°C, read-out: Minimum Inhibitory Concentration (MIC). How it is done: as §1, §2
Assay [4] relates to Ent.cloacae P99. The settings on record: Enterobacter cloacae, Mueller Hinton agar, 16 to 18 hours at 37°C, read-out: Minimum Inhibitory Concentration (MIC). How it is done: as §1, §2
For assay [5], the system named is E.coli 1507E. The settings on record: Escherichia coli, read-out: Minimum Inhibitory Concentration (MIC). The method, then:
as §1, §2

For assay [6], the system named is Staph.aureus SG511. The settings on record: Staphylococcus aureus, Mueller Hinton agar, 16 to 18 hours at 37°C, read-out: Minimum Inhibitory Concentration (MIC). How it is done:
as §1, §2

Assay [7] has as its system E.coli 055. The settings on record: Escherichia coli, Mueller Hinton agar, 16 to 18 hours at 37°C, read-out: Minimum Inhibitory Concentration (MIC). How it is done:
as §1, §2

The test system of assay [8] is Str.pyogenes 77A. The settings on record: Streptococcus pyogenes, Mueller Hinton agar, 16 to 18 hours at 37°C, read-out: Minimum Inhibitory Concentration (MIC). The method, then: as §1, §2
Assay [9] deals with E.coli KN126. The settings on record: Escherichia coli, Mueller Hinton agar, 16 to 18 hours at 37°C, read-out: Minimum Inhibitory Concentration (MIC). The method, then: as §1, §2
Assay [10] concerns Ent.cloacae 1321E. The settings on record: Enterobacter cloacae, read-out: Minimum Inhibitory Concentration (MIC). How it is done: as §1, §2
Assay [11] has as its system E.coli TEM. The settings on record: Escherichia coli, read-out: Minimum Inhibitory Concentration (MIC). How it is done:
as §1, §2

Assay [12] deals with E.coli DC0. The settings on record: Escherichia coli, Mueller Hinton agar, 16 to 18 hours at 37°C, read-out: Minimum Inhibitory Concentration (MIC). The method, then:
as §1, §2

Assay [13] concerns Str.faecium D. The settings on record: Enterococcus faecium; Str.faecium D; Mueller Hinton agar, 16 to 18 hours at 37°C; read-out: Minimum Inhibitory Concentration (MIC). How it is done: as §1, §2
Assay [14] relates to Staph.aureus 285. The settings on record: Staphylococcus aureus, Mueller Hinton agar, 16 to 18 hours at 37°C, read-out: Minimum Inhibitory Concentration (MIC). How it is done:
as §1, §2

Assay [15] has as its system E.coli DC2. The settings on record: Escherichia coli, Mueller Hinton agar, 16 to 18 hours at 37°C, read-out: Minimum Inhibitory Concentration (MIC). The method, then: as §1, §2
Assay [16] deals with Kl.aerog. 1082E. The settings on record: Mueller Hinton agar, 16 to 18 hours at 37°C, read-out: Minimum Inhibitory Concentration (MIC). How it is done: as §1, §2
In assay [17] the test system is Kl.aerog. 1522E. The settings on record: read-out: Minimum Inhibitory Concentration (MIC). The method, then: as §1, §2
Setting [18] is: E.coli 1507E, Mueller Hinton agar, 16 to 18 hours at 37°C.
[19] abbreviates: Ent.cloacae 1321E, Mueller Hinton agar, 16 to 18 hours at 37°C.
The mark [20] stands for this setting: Kl.aerog. 1522E, Mueller Hinton agar, 16 to 18 hours at 37°C.

Molecules are shown by their SMILES. Converted amounts (≈) assume the structure as drawn. Read-outs that look alike come from different tables or passages of the source.

Turning to `C[C@@H](O)[C@H]1C(=O)N2C(C(=O)O)=C(c3cccc(C(N)=O)c3)S[C@H]12` [Example 3-CONH2, 5R,3-(3-aminocarbonylphenyl)-6S-(1R-hydroxyethyl)-7-oxo-4-thia-l-azabicyclo[3.2.0]hept-2-ene-2-carboxylate], the MIC in assay [1] stood at 0.006 µg/mL (≈ 0.0179 µM); in assay [2] it was 0.1 µg/mL (≈ 0.299 µM); in assay [3], 0.05 µg/mL (≈ 0.15 µM); in assay [4], 1.56 µg/mL (≈ 4.67 µM); in assay [5] (setting [18]), 0.19 µg/mL (≈ 0.568 µM); in [6], 0.05 µg/mL (≈ 0.15 µM). The MIC turned out to be 0.1 µg/mL (≈ 0.299 µM) in [7]; 0.013 µg/mL (≈ 0.0389 µM) in assay [8]; 0.1 µg/mL (≈ 0.299 µM) in assay [9]; 0.1 µg/mL (≈ 0.299 µM) in assay [10] (setting [19]); 0.19 µg/mL (≈ 0.568 µM) in assay [11]; 0.39 µg/mL (≈ 1.17 µM) in [12]. Besides, the MIC in assay [13] was determined as 1.56 µg/mL (≈ 4.67 µM); in [14], 0.1 µg/mL (≈ 0.299 µM); in assay [15], 0.1 µg/mL (≈ 0.299 µM); in [16], 0.1 µg/mL (≈ 0.299 µM); in [17] (setting [20]), 0.19 µg/mL (≈ 0.568 µM).

Take `C[C@@H](O)[C@H]1C(=O)N2C(C(=O)O)=C(c3cccc(NC=O)c3)S[C@H]12` [Example 3-NHCHO, 3-(3-formylaminophenyl)-6-(1-hydroxyethyl)-7-oxo-4-thia-l-azabicyclo[3.2.0]hept-2-ene 2-carboxylic acid]: the MIC is less than 0.025 µg/mL in assay [1]; 0.19 µg/mL (≈ 0.568 µM) in assay [2]; 0.1 µg/mL (≈ 0.299 µM) in assay [3]; 12.5 µg/mL (≈ 37.4 µM) in [4]; 0.78 µg/mL (≈ 2.33 µM) in assay [5] (setting [18]); 0.1 µg/mL (≈ 0.299 µM) in assay [6]. The MIC is 0.39 µg/mL (≈ 1.17 µM) in assay [7]; less than 0.025 µg/mL in [8]; 0.39 µg/mL (≈ 1.17 µM) in assay [9]; 0.39 µg/mL (≈ 1.17 µM) in assay [10] (setting [19]); 0.78 µg/mL (≈ 2.33 µM) in [11]; 1.56 µg/mL (≈ 4.67 µM) in assay [12]. Besides, the MIC in assay [13] was found to be 1.56 µg/mL (≈ 4.67 µM); in assay [14], 0.19 µg/mL (≈ 0.568 µM); in assay [15], 0.39 µg/mL (≈ 1.17 µM); in assay [16] it was 0.39 µg/mL (≈ 1.17 µM); in [17] (setting [20]), 0.39 µg/mL (≈ 1.17 µM).

For the compound `CSc1cccc(C2=C(C(=O)O)N3C(=O)[C@H]([C@@H](C)O)[C@H]3S2)c1` [Example 3-SCH3], the MIC in assay [1] is less than 0.05 µg/mL; in [2], 0.19 µg/mL (≈ 0.563 µM); in assay [3] it was 0.05 µg/mL (≈ 0.148 µM); in assay [4], 50 µg/mL (≈ 148 µM); in assay [5] (1507E), 6.25 µg/mL (≈ 18.5 µM); in assay [6], 0.1 µg/mL (≈ 0.296 µM). The MIC in assay [7] was 3.13 µg/mL (≈ 9.28 µM); in [8], less than 0.05 µg/mL; in [9] it was 6.25 µg/mL (≈ 18.5 µM); in assay [10] (1321E) it was 6.25 µg/mL (≈ 18.5 µM); in assay [11], 6.25 µg/mL (≈ 18.5 µM); in assay [12], 12.5 µg/mL (≈ 37 µM). For the same compound, the MIC is 1.56 µg/mL (≈ 4.62 µM) in [13]; 0.19 µg/mL (≈ 0.563 µM) in assay [14]; 0.39 µg/mL (≈ 1.16 µM) in [15]; 0.39 µg/mL (≈ 1.16 µM) in assay [16]; 6.25 µg/mL (≈ 18.5 µM) in assay [17].

In the case of `CC(O)C1C(=O)N2C(C(=O)O)=C(c3ccc(C(N)=O)cc3)SC12` (centres unmarked) [Example 4-CONH2, 3-(4-aminocarbonylphenyl)-6-(1-hydroxyethyl)-7-oxo-4-thia-1-azabicyclo[3.2.0]hept-2-ene 2-carboxylic acid], the MIC was determined as 0.013 µg/mL (≈ 0.0389 µM) in [1]; 0.1 µg/mL (≈ 0.299 µM) in assay [2]; 0.05 µg/mL (≈ 0.15 µM) in assay [3]; 6.25 µg/mL (≈ 18.7 µM) in [4]; 0.39 µg/mL (≈ 1.17 µM) in assay [5] (setting [18]); 0.05 µg/mL (≈ 0.15 µM) in assay [6]. For the same compound, the MIC in assay [7] is 0.19 µg/mL (≈ 0.568 µM); in [8] it was 0.013 µg/mL (≈ 0.0389 µM); in [9] it was 0.39 µg/mL (≈ 1.17 µM); in assay [10] (setting [19]), 0.39 µg/mL (≈ 1.17 µM); in assay [11], 0.39 µg/mL (≈ 1.17 µM); in [12], 0.78 µg/mL (≈ 2.33 µM). Further, the MIC in assay [13] amounted to 1.56 µg/mL (≈ 4.67 µM); in assay [14] it was 0.1 µg/mL (≈ 0.299 µM); in [15], 0.39 µg/mL (≈ 1.17 µM); in [16], 0.39 µg/mL (≈ 1.17 µM); in assay [17] (setting [20]), 0.39 µg/mL (≈ 1.17 µM).

The record behind these values is patent EP0212404A1, “7-oxo-4-thia-1-azabicyclo [3.2.0] hept-2-ene derivatives” (HOECHST AKTIENGESELLSCHAFT, priority 1985, dated 1987).
